≈ marks a conversion by molar mass, not a printed value.

Our source for the MIC, Activity and hemolysis values is ChEMBL document CHEMBL4396896, “N-Aminoacyl and N-hydroxyacyl derivatives of diosgenyl 2-amino-2-deoxy-β-d-glucopyranoside: Synthesis, antimicrobial and hemolytic activities” (Bioorg Med Chem, 2019).

For series [1], the system named is Candida albicans. Nature of the series: Antifungal activity against Candida albicans ATCC 10231 incubated in sabouraud liquid medium under aerobic condition for 48 hrs using initial inoculum of 10^3 CFU/ml by serial dilution method. To be noted: ATCC 10231, 48 h. Type of series: functional.
A further series has as its system Yarrowia lipolytica. The series is described as follows: Antifungal activity against Candida lipolytica PCM 2680 incubated in sabouraud liquid medium under aerobic condition for 48 hrs using initial inoculum of 10^3 CFU/ml by serial dilution method. The format is functional. The conditions noted are these: PCM 2680, 48 h.
The next series deals with Bacillus subtilis. The series is described as follows: Antibacterial activity against Bacillus subtilis ATCC 6633 incubated in MHB II under aerobic condition for 18 hrs using initial inoculum of 5 x 10^5 CFU/ml by serial dilution method. Type of series: functional. The conditions noted are these: ATCC 6633, 18 h.
For series [2], the system named is Enterococcus faecalis. The series is described as follows: Antibacterial activity against Enterococcus faecalis ATCC 29212 incubated in MHB II under aerobic condition for 18 hrs using initial inoculum of 5 x 10^5 CFU/ml by serial dilution method. The conditions noted are these: ATCC 29212, 18 h. Type of series: functional.
A further series has as its system Staphylococcus aureus. Nature of the series: Antibacterial activity against Staphylococcus aureus ATCC 25923 incubated in MHB II under aerobic condition for 18 hrs using initial inoculum of 5 x 10^5 CFU/ml by serial dilution method. Type of series: functional. The conditions noted are these: ATCC 25923, 18 h.
In series [3] the test system is Staphylococcus epidermidis. Nature of the series: Antibacterial activity against Staphylococcus epidermidis PCM 2118 incubated in MHB II under aerobic condition for 18 hrs using initial inoculum of 5 x 10^5 CFU/ml by serial dilution method. Type of series: functional. To be noted: PCM 2118, 18 h.
For series [4], the system named is Erythrocyte. The series is described as follows: Haemolytic activity in human erythrocytes assessed as haemolytic index by measuring hemoglobin release at 0.5 to 128 mg/L incubated for 1 hr by microplate spectrophotometry relative to control. The format is ADME, cell-based. To be noted: erythrocyte, 1 h.
The next series deals with Escherichia coli. Nature of the series: Antibacterial activity against Escherichia coli ATCC 25922 incubated in MHB II under aerobic condition for 18 hrs using initial inoculum of 5 x 10^5 CFU/ml by serial dilution method. Type of series: functional. To be noted: ATCC 25922, 18 h.
The test system of another series is Klebsiella pneumoniae. The series is described as follows: Antibacterial activity against Klebsiella pneumoniae ATCC 700603 incubated in MHB II under aerobic condition for 18 hrs using initial inoculum of 5 x 10^5 CFU/ml by serial dilution method. Type of series: functional. To be noted: ATCC 700603, 18 h.
Another series has as its system Proteus mirabilis. Nature of the series: Antibacterial activity against Proteus mirabilis PCM 543 incubated in MHB II under aerobic condition for 18 hrs using initial inoculum of 5 x 10^5 CFU/ml by serial dilution method. The format is functional. To be noted: PCM 543, 18 h.
A further series deals with Pseudomonas aeruginosa. The series is described as follows: Antibacterial activity against Pseudomonas aeruginosa ATCC 9027 incubated in MHB II under aerobic condition for 18 hrs using initial inoculum of 5 x 10^5 CFU/ml by serial dilution method. Type of series: functional. To be noted: ATCC 9027, 18 h.
Series [5] can be described thus: Haemolytic activity in human erythrocytes assessed as haemolytic index by measuring hemoglobin release at 128 mg/L incubated for 1 hr by microplate spectrophotometry. The conditions noted are these: read-out: HI. The format is ADME, cell-based, Erythrocyte.
A short description of series [6]: Haemolytic activity in human erythrocytes assessed as haemolytic index by measuring hemoglobin release at 64 mg/L incubated for 1 hr by microplate spectrophotometry. The format is ADME, cell-based, Erythrocyte. The conditions noted are these: read-out: HI.
Series [7] is described as follows: Haemolytic activity in human erythrocytes assessed as haemolytic index by measuring hemoglobin release at 32 mg/L incubated for 1 hr by microplate spectrophotometry. The format is ADME, cell-based, Erythrocyte. To be noted: read-out: HI.
Series [8] relates to Erythrocyte. Nature of the series: Haemolytic activity in human erythrocytes assessed as hemoglobin release at 8 to 64 mg/L incubated for 1 hr by microplate spectrophotometry. Type of series: ADME, cell-based.
The test system of series [9] is Candida albicans. Nature of the series: […] activity against Candida albicans ATCC 10231 by antimicrobial susceptibility based testing method. The format is functional.
Series [10] deals with Enterococcus faecalis. The series is described as follows: microbe, parasite or virus in culture. The conditions noted are these: ATCC 29212.
Description: Antibacterial activity against Enterococcus faecalis ATCC 29212 by antimicrobial susceptibility based testing method

For `C[C@@H]1CC[C@@]2(OC1)O[C@H]1C[C@H]3[C@@H]4CC=C5C[C@@H](O[C@@H]6O[C@H](CO)[C@@H](O)[C@H](O)[C@H]6N)CC[C@]5(C)[C@H]4CC[C@]3(C)[C@H]1[C@@H]2C.Cl`, the MIC in the series with Candida albicans [1] came to 2 µg/mL; against Yarrowia lipolytica it was 1 µg/mL; against Bacillus subtilis, 8 µg/mL; in the series on Enterococcus faecalis [2], 16 µg/mL; against Staphylococcus aureus it was 16 µg/mL; in series [3], 16 µg/mL. Besides, the Activity entry with Erythrocyte [4] is on record as “Non-Toxic”.
As for `C[C@@H]1CC[C@@]2(OC1)O[C@H]1C[C@H]3[C@@H]4CC=C5C[C@@H](O[C@@H]6O[C@H](CO)[C@@H](O)[C@H](O)[C@H]6NC(=O)[C@@H]6CCCN6)CC[C@]5(C)[C@H]4CC[C@]3(C)[C@H]1[C@@H]2C`, the MIC against Bacillus subtilis was 8 µg/mL (≈ 11.9 µM); in the series on Enterococcus faecalis [2], 4 µg/mL (≈ 5.94 µM); with Staphylococcus aureus it was 4 µg/mL (≈ 5.94 µM); in series [3] it was 4 µg/mL (≈ 5.94 µM); against Escherichia coli, greater than 128 µg/mL; with Klebsiella pneumoniae, greater than 128 µg/mL. In addition, the MIC in the series on Proteus mirabilis and with Pseudomonas aeruginosa was greater than 128 µg/mL in each case. Also, the hemolysis at 1 h, 128 mg/L in [5] came to 100%. The hemolysis at 1 h, 64 mg/L in series [6] was determined as 100%. Further, the hemolysis at 1 h, 32 mg/L in series [7] came to 46%.
Take `C[C@@H]1CC[C@@]2(OC1)O[C@H]1C[C@H]3[C@@H]4CC=C5C[C@@H](O[C@@H]6O[C@H](CO)[C@@H](O)[C@H](O)[C@H]6NC(=O)[C@H](C)NC(=O)[C@H](C)N)CC[C@]5(C)[C@H]4CC[C@]3(C)[C@H]1[C@@H]2C`: the MIC against Candida albicans [1] is 64 µg/mL (≈ 89.1 µM); against Yarrowia lipolytica, 32 µg/mL (≈ 44.6 µM); with Bacillus subtilis, 64 µg/mL (≈ 89.1 µM); in the series on Enterococcus faecalis [2], greater than 128 µg/mL; against Staphylococcus aureus it was 128 µg/mL (≈ 178 µM); in series [3], 128 µg/mL (≈ 178 µM). Also, the MIC against Escherichia coli, against Klebsiella pneumoniae, with Proteus mirabilis and with Pseudomonas aeruginosa was greater than 128 µg/mL throughout. Also, the hemolysis at 1 h, 128 mg/L in series [5] worked out at 74%. In addition, the hemolysis at 1 h, 64 mg/L in series [6] turned out to be 57%.
For `C[C@@H]1CC[C@@]2(OC1)O[C@H]1C[C@H]3[C@@H]4CC=C5C[C@@H](O[C@@H]6O[C@H](CO)[C@@H](O)[C@H](O)[C@H]6NC(=O)CN)CC[C@]5(C)[C@H]4CC[C@]3(C)[C@H]1[C@@H]2C`, the MIC (in the series on Candida albicans [1]; in the series on Yarrowia lipolytica; in the series with Bacillus subtilis; against Enterococcus faecalis [2]; with Staphylococcus aureus; in [3]) was 64 µg/mL (≈ 101 µM) each time. Also, the MIC against Escherichia coli, against Klebsiella pneumoniae, with Proteus mirabilis and in the series on Pseudomonas aeruginosa was greater than 128 µg/mL each time. Further, in the series with Erythrocyte [8], the Activity result is recorded as “Toxic”. In series [5], the hemolysis at 1 h, 128 mg/L stood at 16%.
As for `C[C@@H]1CC[C@@]2(OC1)O[C@H]1C[C@H]3[C@@H]4CC=C5C[C@@H](O[C@@H]6O[C@H](CO)[C@@H](O)[C@H](O)[C@H]6NC(=O)[C@@H](O)CO)CC[C@]5(C)[C@H]4CC[C@]3(C)[C@H]1[C@@H]2C`, the MIC against Candida albicans [1] is 16 µg/mL (≈ 24.1 µM); in the series with Yarrowia lipolytica, 2 µg/mL (≈ 3.01 µM); in the series on Bacillus subtilis it was greater than 128 µg/mL; against Enterococcus faecalis [2], greater than 128 µg/mL; in the series with Staphylococcus aureus it was greater than 128 µg/mL; in series [3], greater than 128 µg/mL. In addition, the MIC in the series with Escherichia coli, with Klebsiella pneumoniae, in the series on Proteus mirabilis and in the series on Pseudomonas aeruginosa was greater than 128 µg/mL each time. For the same molecule, the hemolysis at 1 h, 128 mg/L in series [5] was 56%. Besides, the hemolysis at 1 h, 64 mg/L in series [6] was 27%.
The molecule `C[C@@H]1[C@H](O)[C@@H](C)/C=C/C=C/C=C/C=C/C=C/C=C/C=C/[C@H](O[C@@H]2O[C@H](C)[C@@H](O)[C@H](N)[C@@H]2O)C[C@@H]2O[C@](O)(C[C@@H](O)C[C@@H](O)[C@H](O)CC[C@@H](O)C[C@@H](O)CC(=O)O[C@H]1C)C[C@H](O)[C@H]2C(=O)O` [AMPHOTERICIN B] gave an MIC in the series with Candida albicans [9] of 0.5 µg/mL (≈ 0.541 µM).
In the series on Enterococcus faecalis [10], `CN[C@H](CC(C)C)C(=O)N[C@H]1C(=O)N[C@@H](CC(N)=O)C(=O)N[C@H]2C(=O)N[C@H]3C(=O)N[C@H](C(=O)N[C@H](C(=O)O)c4cc(O)cc(O)c4-c4cc3ccc4O)[C@H](O)c3ccc(c(Cl)c3)Oc3cc2cc(c3O[C@@H]2O[C@H](CO)[C@@H](O)[C@H](O)[C@H]2O[C@H]2C[C@](C)(N)[C@H](O)[C@H](C)O2)Oc2ccc(cc2Cl)[C@H]1O` [VANCOMYCIN] yielded an MIC of 2 µg/mL (≈ 1.38 µM).
